This is an account of results in US9186354B2, “Pyrrolidine derived β3 adrenergic receptor agonists” (Merck Sharp & Dohme Corp., priority 2010, dated 2015).

The first test deals with T1, human β3 adrenergic receptor (Homo sapiens, UniProt P13945).
T1 construct: stably transfected with the cloned β-adrenergic receptor (β1, β2 or β3); expressed in transfected cells; host or cells: Chinese hamster ovary (CHO) cells, stably transfected
T1 sequence (P13945 whole entry): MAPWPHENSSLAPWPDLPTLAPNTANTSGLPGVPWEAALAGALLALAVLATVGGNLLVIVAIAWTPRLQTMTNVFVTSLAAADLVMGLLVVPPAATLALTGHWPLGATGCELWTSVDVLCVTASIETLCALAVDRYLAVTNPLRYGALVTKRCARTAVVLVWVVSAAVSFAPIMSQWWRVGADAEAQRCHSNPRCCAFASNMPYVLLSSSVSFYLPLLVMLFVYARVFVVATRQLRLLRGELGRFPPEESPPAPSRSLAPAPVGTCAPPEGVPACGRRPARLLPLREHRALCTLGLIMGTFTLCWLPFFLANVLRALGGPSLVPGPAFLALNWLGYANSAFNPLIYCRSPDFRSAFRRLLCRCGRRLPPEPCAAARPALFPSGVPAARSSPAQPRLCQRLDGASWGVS
Kind of test: β3AR-cAMP functional assay in CHO cells stably transfected with cloned β3-adrenergic receptor (LANCE). The class given is cell-based. As to conditions: Table 1; determined with β3AR-cAMP assay, given as ranges; read-out: Human β3 Binding. For orientation: TR-FRET usually uses a lanthanide donor and a delayed reading to cut background.
Consider `O=C(Nc1ccc(C[C@@H]2CC[C@H]([C@H](O)c3ccccc3)N2)cn1)C1CCc2nccc(=O)n21` (stereo partly drawn) [Example 2, N-[5-({(2S, 5R)-5-[(R)-hydroxy(phenyl)methyl]pyrrolidin-2-yl}methyl)pyridin-2-yl]-4-oxo-4,6,7,8-tetrahydropyrrolo[1,2-a]pyrimidine-6-carboxamide], for which the EC50 fell in the range of 11 to 100 nM. The same measure, in the same setting: the result for `O=C(Cn1ncccc1=O)Nc1ccc(C[C@@H]2CC[C@H]([C@H](O)c3ccccc3)N2)cn1` [Example 3, N-[5-({(2S, 5R)-5-[(R)-hydroxy(phenyl)methyl]pyrrolidin-2-yl}methyl)pyridin-2-yl]-2-(6-oxopyridazin-1(6H)-yl)acetamide] reads 101 to 1000 nM; that for `O=C(Cc1nnc(-c2ccccc2)[nH]1)Nc1ccc(C[C@@H]2CC[C@H]([C@H](O)c3ccccc3)N2)cn1` [Example 4, N-[5-([(2S, 5R)-5-[(R)-hydroxy(phenyl)methyl]pyrrolidin-2-yl}methyl)pyridin-2-yl]-2-(5-phenyl-4H-1,2,4-triazol-3-yl)acetamide], 11 to 100 nM.

A further test deals with T1, human β3 adrenergic receptor. Described as above. In kind it is cell-based. As to conditions: Table 2; Beta-3 agonist in vitro functional assay, given as ranges; read-out: Human β3 Agonist Functional Activity. As to the method:
Functional Assay: cAMP production in response to ligand is measured according to Barton, et al. (1991, Agonist-induced desensitization of D2 dopamine receptors in human Y-79 retinoblastoma cells. Mol. Pharmacol. […]) modified as follows. cAMP production is measured using a homogenous time-resolved fluorescence resonance energy transfer immunoassay (LANCE™, Perkin Elmer) according to the manufacture's instructions. Chinese hamster ovary (CHO) cells, stably transfected with the cloned β-adrenergic receptor (β1, β2 or β3) are harvested after 3 days of subculturing. Harvesting of cells is done with Enzyme-free Dissociation Media (Specialty Media). Cells are then counted and resuspended in assay buffer (Hank's Balanced salt solution supplemented with 5 mM HEPES, […]) containing a phosphodiesterase inhibitor (IBMX, 0.6 mM). The reaction is initiated by mixing 6,000 cells in 6 μL with 6 μL Alexa Fluor labeled cAMP antibody (LANCE™ kit) which is then added to an assay well containing 12 μL of compound (diluted in assay buffer to 2× final concentration). The reaction proceeds for 30 minutes at room temperature and is terminated by the addition of 24 ul detection buffer (LANCE™ kit). The assay plate is then incubated for 1 hour at room temperature and time-resolved fluorescence measured on a Perkin Elmer Envision reader or equivalent. The unknown cAMP level is determined by comparing fluorescence levels to a cAMP standard curve.
The non-selective, full agonist […] ligand isoproterenol is used at all three receptors to determine maximal stimulation. The human β3 adrenergic receptor (AR) selective ligand (S)—N-[4-[2-[[2-hydroxy-3-(4-hydroxyphenoxy)propyl]amino]ethyl]-phenyl]-4-iodobenzenesulfonamide is used as a control in all assays. Isoproterenol is titrated at a final concentration in the assay of 10^−10 M to 10^−5 M and the selective ligand (S)—N-[4-[2-[[2-hydroxy-3-(4-hydroxyphenoxy)propyl]amino]ethyl]phenyl]-4-iodobenzenesulfonamide is titrated at the β3 receptor at concentration of 10^−10 M to 10^−5 M. Unknown ligands are titrated at all 3 β-adrenergic receptor subtypes at a final concentration in the assay of 10^−10 M to 10^−5 M to determine the EC50. The EC50 is defined as the concentration of compound that gives 50% activation of its own maximum.
`O=C(c1ccc(C[C@@H]2CC[C@H]([C@H](O)c3ccccc3)N2)cn1)N1CCC2(CCOC2=O)CC1` [Example 8, 8-{[5-({(2S, 5R)-5-[(R)-hydroxy(phenyl)methyl]pyrrolidin-2-yl}methyl)pyridin-2-yl]carbonyl}-2-oxa-8-azaspiro[4.5]decan-1-one]: the EC50 was 11 to 100 nM. Same read-out and setting: the result for `Cn1nnnc1[C@H]1[C@@H]2CN(C(=O)c3ccc(C[C@@H]4CC[C@H]([C@H](O)c5ccccc5)N4)cn3)C[C@@H]21` [Example 9, (R)-{(2R, 5S)-5-[(6-{[6-(1-methyl-1H-tetrazol-5-yl)-3-azabicyclo[3.1.0]hex-3-yl]carbonyl}pyridin-3-yl)methyl]pyrrolidin-2-yl)(phenyl)methanol] reads 11 to 100 nM; that for `O=C(c1ccc(C[C@@H]2CC[C@H]([C@H](O)c3ccccc3)N2)cn1)N1C[C@@H]2[C@H](C1)[C@H]2c1nnnn1CC(F)(F)F` [Example 10], 11 to 100 nM; that for `O=C(c1ccc(C[C@@H]2CC[C@H]([C@H](O)c3ccccc3)N2)cn1)N1C[C@@H]2[C@H](C1)[C@H]2c1nnco1` [Example 11, (R)-{(2R, 5S)-5-[(6-{[6-(1,3,4-oxadiazol-2-yl)-3-azabicyclo[3.1.0]hex-3-yl]carbonyl}pyridin-3-yl)methyl]pyrrolidin-2-yl)(phenyl)methanol], 11 to 100 nM. On the same count and under the same terms, in the case of `CCc1nnc([C@H]2[C@@H]3CN(C(=O)c4ccc(C[C@@H]5CC[C@H]([C@H](O)c6ccccc6)N5)cn4)C[C@@H]32)o1` [Example 12, (R)-{(2R, 5S)-5-[(6-{[6-(5-ethyl-1,3,4-oxadiazol-2-yl)-3-azabicyclo[3.1.0]hex-3-yl]carbonyl}pyridin-3-yl)methyl]pyrrolidin-2-yl)(phenyl)methanol] it was 11 to 100 nM; in that of `O=C(c1ccc(C[C@@H]2CC[C@H]([C@H](O)c3ccccc3)N2)cn1)N1C[C@@H]2[C@H](C1)[C@H]2c1nnc(-c2cnccn2)o1` [Example 13, (R)-phenyl{(2R, 5S)-5-[(6-{[6-(5-pyrazin-2-yl-1,3,4-oxadiazol-2-yl)-3-azabicyclo[3.1.0]hex-3-yl]carbonyl}pyridin-3-yl)methyl]pyrrolidin-2-yl)methanol], under 10 nM; in that of `O=C(c1ccc(C[C@@H]2CC[C@H]([C@H](O)c3ccccc3)N2)cn1)N1CCN(Cc2nnn(CC(F)(F)F)n2)CC1` [Example 14, (R)-phenyl[(2R, 5S)-5-({6-[(4-{[2-(2,2,2-trifluoroethyl)-2H-tetrazol-5-yl]methyl}piperazin-1-yl)carbonyl]pyridin-3-yl}methyl)pyrrolidin-2-yl]methanol], 11 to 100 nM.

The test is the same for the next values; noted with them: cAMP production, CHO cells expressing human β3 AR; read-out: human β3 functional activity.
Take `O=C(Nc1ccc(C[C@@H]2CC[C@H]([C@H](O)c3ccccc3)N2)cn1)[C@@H]1CCc2scnc21` [Example 1]: the EC50 is 20.4 nM. Same read-out and setting: in the case of `O=C(c1ccc(C[C@@H]2CC[C@H]([C@H](O)c3ccccc3)N2)cn1)N1CCC(c2nnnn2CC(F)(F)F)CC1` [Example 5, (R)-Phenyl-(2R,5S)-5-{[6-({4-[1-(2,2,2-trifluoroethyl)-1H-tetrazol-5-yl]piperidin-1-yl}carbonyl-pyridin-3-yl]methyl}pyrrolidin-2-yl)methanol] it was 101 to 1000 nM; in that of `O=C(c1ccc(C[C@@H]2CC[C@H]([C@H](O)c3ccccc3)N2)cn1)N1C[C@@H]2C(n3cnnn3)[C@@H]2C1` (stereo partly drawn) [Example 6, (R)-phenyl[(2R,5S)-5-[(6-{[(1R,5S,6S)-6-(1H-tetrazol-1-yl)-3-azabicyclo[3.1.0]hex-3yl]carbonyl}pyridin-3-yl)methyl]pyrrolidine-2-yl]methanol], 11 to 100 nM. In the case of `O=C(c1ccc(C[C@@H]2CC[C@H]([C@H](O)c3ccccc3)N2)cn1)N1CCN(Cc2ccccn2)CC1` [Example 7, (R)-phenyl[(2R,5S)-5-[(6-{[4-(pyridin-2-ylmethyl)piperazin-1-yl]carbonyl}pyridin-3-yl)methyl]pyrrolidin-2-yl]methanol], the EC50 fell in the range of 101 to 1000 nM.

The target in a further test is T2, β3AR (Rattus norvegicus, UniProt P26255).
T2 construct: Following intravenous administration to rats; host or cells: live rats (endogenous receptor, bladder)
T2 sequence (P26255 whole entry): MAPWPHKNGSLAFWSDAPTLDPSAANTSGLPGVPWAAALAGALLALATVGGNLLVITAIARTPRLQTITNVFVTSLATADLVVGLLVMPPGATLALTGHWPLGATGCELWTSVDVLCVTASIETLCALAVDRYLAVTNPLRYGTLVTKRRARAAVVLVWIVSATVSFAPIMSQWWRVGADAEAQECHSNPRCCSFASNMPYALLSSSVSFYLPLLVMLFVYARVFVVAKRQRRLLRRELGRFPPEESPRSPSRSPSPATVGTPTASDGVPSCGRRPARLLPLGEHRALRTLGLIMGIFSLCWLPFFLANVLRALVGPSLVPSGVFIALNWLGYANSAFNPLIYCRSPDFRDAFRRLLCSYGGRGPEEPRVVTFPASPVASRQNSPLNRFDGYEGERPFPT
Test: not given
As to conditions: rats, intravenous administration; cited from earlier work.
Regarding `C[C@H](Cc1ccc2c(c1)OC(C(=O)[O-])(C(=O)[O-])O2)NC[C@H](O)c1cccc(Cl)c1.[Na+].[Na+]` [CL316243], the bladder pressure entry was “reduces bladder pressure”.

The same test, now with this note: rats, intravenous administration; prolongation of micturition interval without increasing residual urine volume; cited from earlier work.
For the compound `C[C@H](Cc1ccc2c(c1)OC(C(=O)[O-])(C(=O)[O-])O2)NC[C@H](O)c1cccc(Cl)c1.[Na+].[Na+]` [CL316243], the “bladder capacity (cystometric studies)” value was “increases bladder capacity”.
